Tested on: male ICR mice
Test: Repeated-dose toxicity of nasal insulin formulations (10 days)
Assay type: in vivo, mouse
Settings: intranasal once a day for 10 days (insulin 2 IU/kg)
Description: The collected blood was centrifuged to isolate serum, and the isolated serum was analyzed using an automatic serum analyzer. […] From the organ tissue, paraffin sections were prepared, and then stained with H&E (Hematoxylin and Eosin). Histopathological examination of the stained tissues was performed using an optical microscope.

C[C@H](CCC(=O)NCCS(=O)(=O)[O-])[C@H]1CC[C@H]2[C@@H]3CC[C@@H]4C[C@H](O)CC[C@]4(C)[C@H]3C[C@H](O)[C@]12C.[Na+] [sodium taurodeoxycholate]
histological evaluation of the nasal mucosal tissue: destroyed
